In patent US8293781B2, “Indole derivatives having cPLA2 inhibiting activity and applications and production methods of the same” (Daiichi Sankyo Company, Limited, priority 2007, dated 2012):
Where a name gives a salt, the structure may show the parent alone. Read-outs that look alike come from different tables or passages of the source.

Molecular target: T1, cPLA2 crudely purified from the cytoplasm fraction of U937 (Homo sapiens, UniProt P47712)
T1 construct: cPLA2 crudely purified from the cytoplasm fraction of U937; endogenous in cells; host or cells: U937 cells (cytoplasm fraction, crude purification)
T1 sequence (P47712 1-749): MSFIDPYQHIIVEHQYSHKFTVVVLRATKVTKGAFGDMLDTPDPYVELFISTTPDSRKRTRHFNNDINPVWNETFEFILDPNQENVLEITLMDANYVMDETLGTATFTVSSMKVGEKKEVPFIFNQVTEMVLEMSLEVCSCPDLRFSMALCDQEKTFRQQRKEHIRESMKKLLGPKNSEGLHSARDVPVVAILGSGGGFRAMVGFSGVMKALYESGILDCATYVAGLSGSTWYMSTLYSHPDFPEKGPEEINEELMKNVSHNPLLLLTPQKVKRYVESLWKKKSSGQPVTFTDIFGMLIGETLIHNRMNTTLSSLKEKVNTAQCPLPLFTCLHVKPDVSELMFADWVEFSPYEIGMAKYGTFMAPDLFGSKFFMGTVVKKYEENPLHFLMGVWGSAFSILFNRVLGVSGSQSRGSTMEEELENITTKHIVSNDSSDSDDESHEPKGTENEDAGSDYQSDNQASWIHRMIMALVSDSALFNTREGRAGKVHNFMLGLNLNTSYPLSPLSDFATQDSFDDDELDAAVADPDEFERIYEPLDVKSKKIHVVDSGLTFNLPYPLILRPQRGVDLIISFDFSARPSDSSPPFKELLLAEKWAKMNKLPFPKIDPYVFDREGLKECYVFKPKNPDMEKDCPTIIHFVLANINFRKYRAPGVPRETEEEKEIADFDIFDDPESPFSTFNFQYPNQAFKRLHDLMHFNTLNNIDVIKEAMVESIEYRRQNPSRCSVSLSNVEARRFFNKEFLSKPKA
Assay: Measurement of cPLA2 inhibitory activity (release of [14C]-arachidonic acid from phosphatidyl choline liposome)
Format: biochemical
Experimental: The cPLA2 inhibitory activity was measured based on the method described in the document [See H. Naraba et al., J. Immunol. 160, 2974-2982 (1998)] and modified in the following way.
A DMSO solution of the present invitation compounds was diluted to 2.5 times the final concentration with the assay buffer (4 mM CaCl2, 2 mM dithiothreitol, 150 mM NaCl, 50 mM HEPES buffer solution (pH7.5)) containing 0.55 mg/ml BSA. To 20 μl of this, cPLA2 crudely purified from the cytoplasm fraction of U937 was added in an amount of 10 μl after dilution by an assay buffer solution containing 0.55 mg/ml BSA. A liposome prepared by ultrasonically treating L-α-1-palmitoyl-2-[14C]arachidonyl-phosphatidyl choline (made by PerkinElmer) and adjusted by the assay buffer solution to a concentration of phosphatidyl choline of 10 μM was added and stirred in by an amount of 20 μl and the mixture was reacted at 37° C. for 60 minutes. The [^14C]-arachidonic acid released due to the reaction was extracted based on the method described in the documents [see V. P. Dole et al., J. Biol. Chem. 235, 2595 (1960)], was added to Lumaplate® (made by PerkinElmer), dried, then measured by Topcount® (made by PerkinElmer). Except for not adding the present invention compounds, the same procedure was performed as the above to obtain the enzyme control. Except for not adding the invention compounds and not adding the enzyme, the same procedure was followed as above to obtain a negative control. The inhibiting activity was expressed as a percent (%) of the value minus the negative control with respect to the value of the enzyme control minus the negative control. From this, the 50% inhibiting concentration (IC50, μM) was calculated.

[1] = cPLA2 from U937 cytoplasm fraction, [14C]arachidonyl-phosphatidyl choline liposome, 37° C., 60 minutes, read-out: cPLA2 inhibitory activity, 50% inhibiting concentration IC50

Row | SMILES | IC50 | IC50 [1]
1 | O=C(O)/C=C/c1ccc2c(c1)c(C(=O)Cc1ccc(F)cc1)cn2-c1ccccc1 [Example 60, (2E)-3-{3-[(4-fluorophenyl)acetyl]-1-phenyl-1H-indol-5-yl}-2-propenoic acid] | 5720 nM | –
2 | O=C(O)CCc1ccc2c(c1)c(C(=O)Cc1ccc(F)cc1)cn2-c1ccccc1 [Example 61, 3-{3-[(4-fluorophenyl)acetyl]-1-phenyl-1H-indol-5-yl}propanoic acid] | 653 nM | –
3 | O=C(O)CCc1ccc2c(c1)c(CCc1ccc(F)cc1)cn2-c1ccccc1 [Example 62, 3-{3-[2-(4-fluorophenyl)ethyl]-1-phenyl-1H-indol-5-yl}propanoic acid 2-amino-2-(hydroxymethyl)propane-1,3-diol salt (1:1)] | – | 565 nM
4 | COc1ccc(CC(=O)c2cn(-c3ccccc3)c3ccc(/C=C/C(=O)O)cc23)cc1 [Example 64, (2E)-3-{3-[(4-methoxyphenyl)acetyl]-1-phenyl-1H-indol-5-yl}-2-propenoic acid] | 19600 nM | –
5 | COc1ccc(CC(=O)c2cn(-c3ccccc3)c3ccc(CCC(=O)O)cc23)cc1 [Example 65, 3-{3-[(4-methoxyphenyl)acetyl]-1-phenyl-1H-indol-5-yl}propanoic acid] | 1910 nM | –
6 | COc1ccc(CCc2cn(-c3ccccc3)c3ccc(CCC(=O)O)cc23)cc1 [Example 66, 3-{3-[2-(4-methoxyphenyl)ethyl]-1-phenyl-1H-indol-5-yl}propanoic acid 2-amino-2-(hydroxymethyl)propane-1,3-diol salt (1:1)] | – | 718 nM
7 | COc1cccc(CCc2cn(-c3ccccc3)c3ccc(CCC(=O)O)cc23)c1 [Example 68, 3-{3-[2-(3-methoxyphenyl)ethyl]-1-phenyl-1H-indol-5-yl}propanoic acid 2-amino-2-(hydroxymethyl)propane-1,3-diol salt (1:1)] | – | 1000 nM
8 | COc1ccc(CCc2cn(-c3ccccc3)c3ccc(CCC(=O)O)cc23)cc1OC [Example 70, 3-{3-[2-(3,4-dimethoxyphenyl)ethyl]-1-phenyl-1H-indol-5-yl}propanoic acid 2-amino-2-(hydroxymethyl)propane-1,3-diol salt (1:1)] | – | 1360 nM
9 | COc1ccc(-n2cc(CCc3ccccc3)c3cc(/C=C/C(=O)O)ccc32)cc1 [Example 74, (2E)-3-[1-(4-methoxyphenyl)-3-(2-phenylethyl)-1H-indol-5-yl]-2-propenoic acid] | – | 157 nM
10 | COc1ccc(-n2cc(CCc3ccccc3)c3cc(CCC(=O)O)ccc32)cc1 [Example 77, 3-[1-(4-methoxyphenyl)-3-(2-phenylethyl)-1H-indol-5-yl]propanoic acid 2-amino-2-(hydroxymethyl)propane-1,3-diol salt (1:1)] | – | 26 nM
11 | O=C(O)CCc1ccc2c(c1)c(CCc1ccccc1)cn2-c1ccc(C(=O)O)cc1 [Example 79, 4-[5-(2-carboxyethyl)-3-(2-phenylethyl)-1H-indol-1-yl]benzoic acid] | – | 180 nM
12 | N#Cc1ccc(-n2cc(CCc3ccccc3)c3cc(CCC(=O)O)ccc32)cc1 [Example 81, 3-[1-(4-cyanophenyl)-3-(2-phenylethyl)-1H-indol-5-yl]propanoic acid] | – | 58 nM
13 | O=C(O)CCc1ccc2c(c1)c(CCc1ccccc1)cn2-c1ccc([N+](=O)[O-])cc1 [Example 83, 3-[1-(4-nitrophenyl)-3-(2-phenylethyl)-1H-indol-5-yl]propanoic acid] | – | 101 nM
14 | CN(C)c1ccc(-n2cc(CCc3ccccc3)c3cc(CCC(=O)O)ccc32)cc1 [Example 85, 3-{1-[4-(dimethylamino)phenyl]-3-(2-phenylethyl)-1H-indol-5-yl}propanoic acid] | – | 77 nM
15 | CN(C)c1ccc(-n2cc(CCc3ccccc3)c3cc(CCC(=O)O)ccc32)cc1 [Example 86, 3-{1-[4-(dimethylamino)phenyl]-3-(2-phenylethyl)-1H-indol-5-yl}propanoic acid 2-amino-2-(hydroxymethyl)propane-1,3-diol salt (1:1)] | – | 24 nM
16 | CCN(CC)c1ccc(-n2cc(CCc3ccccc3)c3cc(CCC(=O)O)ccc32)cc1 [Example 88, 3-{1-[4-(diethylamino)phenyl]-3-(2-phenylethyl)-1H-indol-5-yl}propanoic acid] | – | 142 nM
17 | CC(=O)Nc1ccc(-n2cc(CCc3ccccc3)c3cc(CCC(=O)O)ccc32)cc1 [Example 91, 3-{1-[4-(acetylamino)phenyl]-3-(2-phenylethyl)-1H-indol-5-yl}propanoic acid 2-amino-2-(hydroxymethyl)propane-1,3-diol salt (1:1)] | – | 207 nM
18 | CC(C)(C)C(=O)Nc1ccc(-n2cc(CCc3ccccc3)c3cc(CCC(=O)O)ccc32)cc1 [Example 93, 3-[1-{4-[(2,2-dimethylpropanoyl)amino]phenyl}-3-(2-phenylethyl)-1H-indol-5-yl]propanoic acid 2-amino-2-(hydroxymethyl)propane-1,3-diol salt (1:1)] | – | 112 nM
19 | Cc1ccc(-n2cc(CCc3ccccc3)c3cc(CCC(=O)O)ccc32)cc1 [Example 95, 3-[1-(4-methylphenyl)-3-(2-phenylethyl)-1H-indol-5-yl]propanoic acid 2-amino-2-(hydroxymethyl)propane-1,3-diol salt (1:1)] | – | 77 nM
20 | Cc1cccc(-n2cc(CCc3ccccc3)c3cc(CCC(=O)O)ccc32)c1 [Example 97, 3-[1-(3-methylphenyl)-3-(2-phenylethyl)-1H-indol-5-yl]propanoic acid 2-amino-2-(hydroxymethyl)propane-1,3-diol salt (1:1)] | – | 99 nM
21 | Cc1ccccc1-n1cc(CCc2ccccc2)c2cc(CCC(=O)O)ccc21 [Example 99, 3-[1-(2-methylphenyl)-3-(2-phenylethyl)-1H-indol-5-yl]propanoic acid 2-amino-2-(hydroxymethyl)propane-1,3-diol salt (1:1)] | – | 288 nM
22 | Cc1ccc(-n2cc(CCc3ccccc3)c3cc(CCC(=O)O)ccc32)cc1C [Example 101, 3-[1-(3,4-dimethylphenyl)-3-(2-phenylethyl)-1H-indol-5-yl]propanoic acid 2-amino-2-(hydroxymethyl)propane-1,3-diol salt (1:1)] | – | 96 nM
23 | CC(C)(C)c1ccc(-n2cc(CCc3ccccc3)c3cc(CCC(=O)O)ccc32)cc1 [Example 103, 3-[1-(4-tert-butylphenyl)-3-(2-phenylethyl)-1H-indol-5-yl]propanoic acid 2-amino-2-(hydroxymethyl)propane-1,3-diol salt (1:1)] | – | 419 nM
24 | O=C(O)CCc1ccc2c(c1)c(CCc1ccccc1)cn2-c1ccc(Cl)cc1 [Example 105, 3-[1-(4-chlorophenyl)-3-(2-phenylethyl)-1H-indol-5-yl]propanoic acid 2-amino-2-(hydroxymethyl)propane-1,3-diol salt (1:1)] | – | 36 nM
25 | COc1cccc(-n2cc(CCc3ccccc3)c3cc(CCC(=O)O)ccc32)c1 [Example 107, 3-[1-(3-methoxyphenyl)-3-(2-phenylethyl)-1H-indol-5-yl]propanoic acid 2-amino-2-(hydroxymethyl)propane-1,3-diol salt (1:1)] | – | 195 nM
26 | COc1ccccc1-n1cc(CCc2ccccc2)c2cc(CCC(=O)O)ccc21 [Example 109, 3-[1-(2-methoxyphenyl)-3-(2-phenylethyl)-1H-indol-5-yl]propanoic acid 2-amino-2-(hydroxymethyl)propane-1,3-diol salt (1:1)] | – | 224 nM
27 | CCOc1ccc(-n2cc(CCc3ccccc3)c3cc(CCC(=O)O)ccc32)cc1 [Example 112, 3-[1-(4-ethoxyphenyl)-3-(2-phenylethyl)-1H-indol-5-yl]propanoic acid 2-amino-2-(hydroxymethyl)propane-1,3-diol salt (1:1)] | – | 15 nM
